From patent publication US7655217B2, “Near infrared imaging agent” (Institut fur Diagnosikforschung GmbH, priority 1997, dated 2010)

Assays:
[1] = in vivo; cited from earlier work
albumin = albumin (Homo sapiens, UniProt P02768); details: cited from earlier work
[2] = cited from earlier work
tumour LS 174 T = assay: laser-induced fluorescence imaging of tumour-bearing mouse; type: in vivo, mouse (Swiss Nude)
Source text: 2-[7-[1,3-dihydro-3,3-dimethyl-5-(methoxycarbonyl)-1-(4-sulfobutyl)-2H-indol-2-yliden]-1,3,5-heptatrienyl]-3,3 -dimethyl-5-(methoxycarbonyl)-1-(4-sulfobutyl)-3H-indolium, sodium salt at a dose of 3.8 μmol/kg body weight was applied intravenously to an anaesthetized, tumour-bearing mouse (Swiss Nude; tumour LS 174 T at the right hindleg).
The laser-induced fluorescent images were taken prior to, and at various points in time after, applying the substance with a fluorescence imager (at Physikalisch-Technische Bundesanstalt, Berlin Charlottenburg). Radiation was excited using monochromatic laser light at 740 nm by decoupling the radiation via a fibre optical waveguide system. Exciting radiation below 740 nm was removed using a cutoff filter. The laser-induced fluorescence light above 740 nm was recorded using a CCD camera (Charge Coupled Device), and data was stored in the form of black-and-white images.

Chain of albumin (P02768 25-609, species assumed): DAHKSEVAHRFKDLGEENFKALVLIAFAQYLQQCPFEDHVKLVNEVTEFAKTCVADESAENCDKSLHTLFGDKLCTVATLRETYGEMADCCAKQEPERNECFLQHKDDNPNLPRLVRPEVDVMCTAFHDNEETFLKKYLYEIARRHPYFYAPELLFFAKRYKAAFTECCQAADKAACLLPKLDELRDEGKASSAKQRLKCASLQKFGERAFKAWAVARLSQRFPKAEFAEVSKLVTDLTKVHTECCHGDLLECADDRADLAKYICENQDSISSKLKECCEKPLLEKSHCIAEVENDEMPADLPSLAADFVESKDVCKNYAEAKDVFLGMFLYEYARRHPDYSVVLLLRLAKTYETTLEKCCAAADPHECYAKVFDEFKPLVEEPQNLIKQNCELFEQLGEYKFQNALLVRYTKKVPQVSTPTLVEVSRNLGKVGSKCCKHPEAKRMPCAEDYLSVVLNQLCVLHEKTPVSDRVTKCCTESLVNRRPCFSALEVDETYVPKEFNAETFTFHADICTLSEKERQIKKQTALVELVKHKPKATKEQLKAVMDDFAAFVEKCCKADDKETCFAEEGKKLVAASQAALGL

SMILES	LD50 [1]	binding to albumin (albumin)	stability when dissolved ([2]; dissolved)	applicability in saline media ([2]; saline media)	fluorescent intensity distribution (tumour LS 174 T; 30 seconds after i.v. 3.8 μmol/kg body weight, excitation 740 nm)	fluorescent intensity in the tumour as compared with the rest of the body (tumour LS 174 T; 18 hours after i.v. 3.8 μmol/kg body weight)	distribution of the substance in the animal (tumour LS 174 T; up to 1 h after i.v. 3.8 μmol/kg body weight)
CC1(C)C(/C=C/C=C/C=C/C=C2\N(CCCCS(=O)(=O)O)c3ccc4ccccc4c3C2(C)C)=[N+](CCCCS(=O)(=O)[O-])c2ccc3ccccc3c21 [Indocyanine green]	0.84 mmol/kg	up to 100%	unstable when dissolved	precipitation will occur	–	–	–
COC(=O)c1ccc2c(c1)C(C)(C)C(=CC=CC=CC=CC1=[N+](CCCCS(=O)(=O)O)c3ccc(C(=O)OC)cc3C1(C)C)N2CCCCS(=O)(=O)O.[Na+] [Example 8, 2-[7-[1,3-dihydro-3,3-dimethyl-5-(methoxycarbonyl)-1-(4-sulfobutyl)-2H-indol-2-yliden]-1,3,5-heptatrienyl]-3,3-dimethyl-5-(methoxycarbonyl)-1-(4-sulfobutyl)-3H-indolium, sodium salt]	–	–	–	–	values being increased in the hepatic and pulmonary regions and in the tumour	clearly increased fluorescent intensity	spreads more and more throughout the animal
